Laboratory results published in patent US20110082130A1 (LIGAND PHARMACEUTICALS, INC., priority 2006, published 2011).

These compounds were tested against T1, chimeric human H3 receptor (Homo sapiens, UniProt Q9Y5N1) (assay: Chimeric human H3 receptor GTP binding assay (agonist-stimulated GTP-gamma35S binding, Example 7)). Details: Table I; P2 membranes of Sf9 cells, 1 μM histamine as agonist, Ki from IC50 by Cheng-Prusoff.
T1 construct: made in house; host or cells: Sf9 insect cells (baculovirus); P2 membrane preparation
T1 sequence (Q9Y5N1 with tags, fused parts or gaps): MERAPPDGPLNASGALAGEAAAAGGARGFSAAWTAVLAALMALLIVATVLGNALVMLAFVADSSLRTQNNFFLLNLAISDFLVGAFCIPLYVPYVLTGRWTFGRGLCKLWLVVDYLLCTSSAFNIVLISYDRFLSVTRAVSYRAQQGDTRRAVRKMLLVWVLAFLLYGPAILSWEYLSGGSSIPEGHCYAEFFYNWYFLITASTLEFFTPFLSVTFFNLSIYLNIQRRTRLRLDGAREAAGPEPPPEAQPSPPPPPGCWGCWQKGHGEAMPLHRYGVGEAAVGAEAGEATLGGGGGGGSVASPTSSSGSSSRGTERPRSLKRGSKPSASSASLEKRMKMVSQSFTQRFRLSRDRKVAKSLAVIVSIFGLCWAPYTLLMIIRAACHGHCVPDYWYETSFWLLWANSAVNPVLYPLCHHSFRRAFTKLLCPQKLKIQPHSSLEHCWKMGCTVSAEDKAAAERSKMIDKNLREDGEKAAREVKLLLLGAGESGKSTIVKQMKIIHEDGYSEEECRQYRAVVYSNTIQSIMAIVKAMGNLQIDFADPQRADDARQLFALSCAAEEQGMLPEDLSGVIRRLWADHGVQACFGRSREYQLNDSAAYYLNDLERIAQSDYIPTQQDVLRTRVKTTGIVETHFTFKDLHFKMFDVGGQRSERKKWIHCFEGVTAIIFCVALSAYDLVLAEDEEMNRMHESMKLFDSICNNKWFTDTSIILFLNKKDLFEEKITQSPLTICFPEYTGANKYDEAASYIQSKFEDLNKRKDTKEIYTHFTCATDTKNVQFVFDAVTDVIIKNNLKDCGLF
Type: biochemical
Source text: This Example illustrates a representative assay for evaluating agonist-stimulated GTP-gamma^35S binding (“GTP binding”) activity. […] This agonist-stimulated GTP binding activity can also be used to detect partial agonism mediated by antagonist compounds. A compound analyzed in this assay is referred to herein as a “test compound.”
Four independent baculoviral stocks (one directing the expression of the chimeric human H3 receptor and three directing the expression of each of the three subunits of a heterotrimeric G-protein) are used to infect a culture of Sf9 cells as described above. P2 membranes are prepared as described above, and agonist-stimulated GTP binding on the P2 membranes is assessed using histamine (Sigma Chemical Co., St. Louis, Mo.) as agonist in order to ascertain that the receptor/G-protein-alpha-beta-gamma combination(s) yield a functional response as measured by GTP binding. P2 membranes are resuspended by Dounce homogenization (tight pestle) in GTP binding assay buffer (50 mM Tris pH 7.4, 120 mM NaCl, 5 mM MgCl2, 2 mM EGTA, 1 mg/ml BSA, 0.2 mg/ml bacitracin, 0.02 mg/ml aprotinin, 0.01 mg/ml saponin, 10 μM GDP) and added to assay tubes at a concentration of 35 μg protein/reaction tube. After adding increasing doses of histamine at concentrations ranging from 10^−12 M to 10^−5 M, reactions are initiated by the addition of […] GTP-gamma^35S (PERKIN ELMER; Boston, Mass.) with a final assay volume of 0.20 ml. In competition experiments, non-radiolabeled test compounds are added to separate reactions at concentrations ranging from 10^−10 M to 10^−6 M along with 1 μM histamine to yield a final volume of 0.20 ml.
Neutral antagonists are antagonists that are substantially free of inherent agonist activity, and include those test compounds that reduce the histamine-stimulated GTP binding activity towards, but not below, baseline levels. In contrast, in the absence of added histamine, inverse agonists reduce the GTP binding activity of the receptor-containing membranes below baseline.
After a 60-min incubation at room temperature, reactions are terminated by vacuum filtration over WHATMAN GF/C filters (pre-soaked in wash buffer, 0.1% BSA) followed by washing with ice-cold wash buffer (50 mM Tris pH 7.4, 120 mM NaCl). The amount of receptor-bound (and thereby membrane-bound) GTP-gamma^35S is determined by measuring the filter-bound radioactivity, preferably by liquid scintillation spectrometry of the washed filters. Non-specific binding is determined in parallel assays including 10 μM unlabeled GTP-gammaS and typically represents less than 5 percent of total binding. Data is expressed as percent above basal (baseline). The results of GTP binding experiments are analyzed using SIGMAPLOT software (SPSS Inc., Chicago, Ill.). IC50 values are calculated by non-linear regression analysis of dose-response curves using Kaleidograph (Synergy Software, Reading, Pa.).
Alternatively the data is analyzed as follows. First, the average bound radioactivity from negative control wells (no agonist) is subtracted from the bound radioactivity detected for each of the other experimental wells. Second, average bound radioactivity is calculated for the positive control wells (agonist wells). Then, percent inhibition for each compound tested is calculated using the equation:
Calculated IC50 values are converted to K1 values by the Cheng-Prusoff correction (Cheng and Prusoff (1973) Biochem. Pharmacol. 22(23):3099-3108). Accordingly, the following equation: Ki=IC50/(1+[L]/EC50) is used, where [L] is the histamine concentration in the GTP binding assay, and EC50 is the concentration of histamine producing a 50% response, as determined by a dose-response analysis using concentrations of histamine ranging from 10^−10 M to 10^−6M. […]

| Ki | Structure (SMILES) |
| --- | --- |
| < 1 µM | O=C(CN1CCc2ccccc2C1)N1CCN(C2CCCC2)CC1 [Compound 46, 2-[2-(4-cyclopentylpiperazin-1-yl)-2-oxoethyl]-1,2,3,4-tetrahydroisoquinoline] |
| < 1 µM | COc1cc2c(cc1OC)CN(CC(=O)N1CCN(C3CCCC3)CC1)CC2 [Compound 47, 2-[2-(4-cyclopentylpiperazin-1-yl)-2-oxoethyl]-6,7-dimethoxy-1,2,3,4-tetrahydroisoquinoline] |
| < 1 µM | COc1cc2c(cc1OC)CN(CC(=O)N1CCN(C3CCC3)CC1)CC2 [Compound 48, 2-[2-(4-cyclobutylpiperazin-1-yl)-2-oxoethyl]-6,7-dimethoxy-1,2,3,4-tetrahydroisoquinoline] |
| < 1 µM | COc1cc2c(cc1OC)CN(CC(=O)N1CCN(C(C)C)CC1)CC2 [Compound 49, 2-[2-(4-isopropylpiperazin-1-yl)-2-oxoethyl]-6,7-dimethoxy-1,2,3,4-tetrahydroisoquinoline] |
| < 1 µM | COc1cc2c(cc1OC)CN(CC(=O)N1CCN(C3CCCCC3)CC1)CC2 [Compound 50, 2-[2-(4-cyclohexylpiperazin-1-yl)-2-oxoethyl]-6,7-dimethoxy-1,2,3,4-tetrahydroisoquinoline] |
| < 1 µM | CC(C)N1CCN(C(=O)CN2CCc3ccccc3C2c2ccccc2)CC1 (stereo not shown) [Compound 52, 2-[2-(4-isopropylpiperazin-1-yl)-2-oxoethyl]-1-phenyl-1,2,3,4-tetrahydroisoquinoline] |

Same assay, conditions: Table II; "*" = Ki in assay of Example 7 less than 1 micromolar

| Structure (SMILES) | Ki |
| --- | --- |
| CC1CCC[C@H]2CN(C(=O)CN3CCc4nc(Cl)ccc4C3)CCN12 (stereo in doubt) [Compound 174, 2-chloro-6-[2-(6-methyloctahydro-2H-pyrido[1,2-a]pyrazin-2-yl)-2-oxoethyl]-5,6,7,8-tetrahydro-1,6-naphthyridine] | < 1 µM |
| CC1CCC[C@H]2CN(C(=O)CN3CCc4nc(-c5cncnc5)ccc4C3)CCN12 (stereo in doubt) [Compound 177, 6-[2-(6-methyloctahydro-2H-pyrido[1,2-a]pyrazin-2-yl)-2-oxoethyl]-2-pyrimidin-5-yl-5,6,7,8-tetrahydro-1,6-naphthyridine] | < 1 µM |
| COc1ccc(-c2ccc3c(n2)CCN(CC(=O)N2CCN4C(C)CCC[C@H]4C2)C3)cc1 (stereo in doubt) [Compound 178, 2-(4-methoxyphenyl)-6-[2-(6-methyloctahydro-2H-pyrido[1,2-a]pyrazin-2-yl)-2-oxoethyl]-5,6,7,8-tetrahydro-1,6-naphthyridine] | < 1 µM |
| CC1CN(c2ccc3c(n2)CCN(CC(=O)N2CCN4C(C)CCC[C@H]4C2)C3)CC(C)O1 (stereo in doubt) [Compound 179, 2-(2,6-dimethylmorpholin-4-yl)-6-[2-(6-methyloctahydro-2H-pyrido[1,2-a]pyrazin-2-yl)-2-oxoethyl]-5,6,7,8-tetrahydro-1,6-naphthyridine] | < 1 µM |
| CC1CCC[C@H]2CN(C(=O)CN3CCc4nc(N5CCC(F)(F)CC5)ccc4C3)CCN12 (stereo in doubt) [Compound 180, 2-(4,4-difluoropiperidin-1-yl)-6-[2-(6-methyloctahydro-2H-pyrido[1,2-a]pyrazin-2-yl)-2-oxoethyl]-5,6,7,8-tetrahydro-1,6-naphthyridine] | < 1 µM |
| COCCN(C)c1ccc2c(n1)CCN(CC(=O)N1CCN3C(C)CCC[C@H]3C1)C2 (stereo in doubt) [Compound 181, N-(2-methoxyethyl)-N-methyl-6-[2-(6-methyloctahydro-2H-pyrido[1,2-a]pyrazin-2-yl)-2-oxoethyl]-5,6,7,8-tetrahydro-1,6-naphthyridin-2-amine] | < 1 µM |
| C[C@H]1CCCN1c1ccc2c(n1)CCN(CC(=O)N1CCN(C3CCC3)CC1)C2 (stereo in doubt) [Compound 223, 6-[2-(4-cyclobutylpiperazin-1-yl)-2-oxoethyl]-2-(2-methylpyrrolidin-1-yl)-5,6,7,8-tetrahydro-1,6-naphthyridine] | < 1 µM |
| C[C@@H](O)c1ccc2c(c1)CCN(CC(=O)N1CCN(C3CCC3)CC1)C2 (stereo in doubt) [Compound 253, 1-{2-[2-(4-cyclobutylpiperazin-1-yl)-2-oxoethyl]-1,2,3,4-tetrahydroisoquinolin-6-yl}ethanol] | < 1 µM |

Results, then the compound that gave them:

| Ki | Structure (SMILES) |
| --- | --- |
| < 1 µM | CC1CCC[C@H]2CN(C(=O)CN3CCc4cc(Br)ccc4C3)CCN12 (stereo in doubt) [Compound 146, 2-[(6-bromo-3,4-dihydroisoquinolin-2(1H)-yl)acetyl]-6-methyloctahydro-2H-pyrido[1,2-a]pyrazine] |
| < 1 µM | CC1CCC[C@H]2CN(C(=O)CN3CCc4nc(Cl)sc4C3)CCN12 (stereo in doubt) [Compound 147, 2-[(2-chloro-6,7-dihydro[1,3]thiazolo [5,4-c]pyridin-5(4H)-yl)acetyl]-6-methyloctahydro-2H-pyrido[1,2-a]pyrazine] |
| < 1 µM | CC1CCC[C@H]2CN(C(=O)CN3CCc4cc(-c5cncnc5)ccc4C3)CCN12 (stereo in doubt) [Compound 149, 6-methyl-2-[(6-pyrimidin-5-yl-3,4-dihydroisoquinolin-2(1H)-yl)acetyl]octahydro-2H-pyrido[1,2-a]pyrazine] |
| < 1 µM | CC1CCC[C@H]2CN(C(=O)CN3CCc4nc(-c5cncnc5)sc4C3)CCN12 (stereo in doubt) [Compound 150, 6-methyl-2-[(2-pyrimidin-5-yl-6,7-dihydro[1,3]thiazolo [5,4-c]pyridin-5(4H)-yl)acetyl]octahydro-2H-pyrido[1,2-a]pyrazine] |
| < 1 µM | CC1CCC[C@H]2CN(C(=O)CN3CCc4cc(-n5cccn5)ccc4C3)CCN12 (stereo in doubt) [Compound 152, 6-methyl-2-{[6-(1H-pyrazol-1-yl)-3,4-dihydroisoquinolin-2(1H)-yl]acetyl}octahydro-2H-pyrido[1,2-a]pyrazine] |
| < 1 µM | CC1CCC[C@H]2CN(C(=O)CN3CCc4cc(-n5ccc(C(F)(F)F)n5)ccc4C3)CCN12 (stereo in doubt) [Compound 158, 6-methyl-2-({6-[3-(trifluoromethyl)-1H-pyrazol-1-yl]-3,4-dihydroisoquinolin-2(1H)-yl}acetyl)octahydro-2H-pyrido[1,2-a]pyrazine] |
| < 1 µM | CCC1CCC[C@H]2CN(C(=O)CN3CCc4cc(-c5cncnc5)ccc4C3)CCN12 (stereo in doubt) [Compound 160, 6-ethyl-2-[(6-pyrimidin-5-yl-3,4-dihydroisoquinolin-2(1H)-yl)acetyl]octahydro-2H-pyrido[1,2-a]pyrazine] |
| < 1 µM | CCC1CCC[C@H]2CN(C(=O)CN3CCc4cc(-n5ccc(C(F)(F)F)n5)ccc4C3)CCN12 (stereo in doubt) [Compound 161, 6-ethyl-2-({6-[3-(trifluoromethyl)-1H-pyrazol-1-yl]-3,4-dihydroisoquinolin-2(1H)-yl}acetyl)octahydro-2H-pyrido[1,2-a]pyrazine] |
| < 1 µM | CCC1CCC[C@H]2CN(C(=O)CN3CCc4cc(Br)ccc4C3)CCN12 (stereo in doubt) [Compound 162, 2-[(6-bromo-3,4-dihydroisoquinolin-2(1H)-yl)acetyl]-6-ethyloctahydro-2H-pyrido[1,2-a]pyrazine] |
| < 1 µM | CCC1CCC[C@H]2CN(C(=O)CN3CCc4cc(C(C)=O)ccc4C3)CCN12 (stereo in doubt) [Compound 163, 1-{2-[2-(6-ethyloctahydro-2H-pyrido[1,2-a]pyrazin-2-yl)-2-oxoethyl]-1,2,3,4-tetrahydroisoquinolin-6-yl}ethanone] |
| < 1 µM | CCC1CCC[C@H]2CN(C(=O)CN3CCc4cc(-n5cccn5)ccc4C3)CCN12 (stereo in doubt) [Compound 167, 6-ethyl-2-{[6-(1H-pyrazol-1-yl)-3,4-dihydroisoquinolin-2(1H)-yl]acetyl}octahydro-2H-pyrido[1,2-a]pyrazine] |
